Experimental data as given in the NIST ThermoML archive (doi:10.1016/j.jct.2005.05.008).

Key:
[1] = 298.15 K; 101.33 kPa; Liquid
[2] = an = ratio of the nth substance listed, in mol/kg; settings: 101 kPa, Liquid, Vibrating tube method

CC(=O)N(C)C [N,N-dimethylethanamide]
Settings | mass density [kg/m3]
[1] | 936.357

CN(C)C=O [dimethylformamide] + C[N+](C)(C)C.[O-][Cl+3]([O-])([O-])[O-]
[2], a2 = 0
Settings | mass density [kg/m3]
283.15 K | 958.067
293.15 K | 948.553
298.15 K | 943.79
303.15 K | 939.014
313.15 K | 929.43
323.15 K | 919.797
333.15 K | 910.117

CN(C)C=O [dimethylformamide] + CC[N+](CC)(CC)CC.[O-][Cl+3]([O-])([O-])[O-]
[2], a2 = 0
Settings | mass density [kg/m3]
283.15 K | 958.067
293.15 K | 948.553
298.15 K | 943.79
303.15 K | 939.014
313.15 K | 929.43
323.15 K | 919.797
333.15 K | 910.117

CCCC[N+](CCCC)(CCCC)CCCC.[O-][Cl+3]([O-])([O-])[O-] [tetrabutylammonium perchlorate] + CN(C)C=O
mass density [kg/m3], [2]
Settings | a1 = 0.02852 | a1 = 0.05393 | a1 = 0.07866 | a1 = 0.1047 | a1 = 0.1431 | a1 = 0.1824 | a1 = 0.222 | a1 = 0.2619
283.15 K | 959.148 | 960.097 | 961.015 | 961.969 | 963.376 | 964.794 | 966.232 | 967.661
293.15 K | 949.672 | 950.653 | 951.604 | 952.588 | 954.042 | 955.511 | 956.99 | 958.466
298.15 K | 944.93 | 945.929 | 946.892 | 947.89 | 949.37 | 950.86 | 952.366 | 953.862
303.15 K | 940.173 | 941.191 | 942.17 | 943.187 | 944.69 | 946.204 | 947.732 | 949.254
313.15 K | 930.632 | 931.686 | 932.697 | 933.756 | 935.303 | 936.87 | 938.448 | 940.016
323.15 K | 921.05 | 922.138 | 923.191 | 924.277 | 925.877 | 927.496 | 929.126 | 930.747
333.15 K | 911.409 | 912.535 | 913.625 | 914.75 | 916.4 | 918.08 | 919.765 | 921.436
